What all share (format): cell-based, human
Test [1] relates to IP-10. Kind of test: LPS-stimulated IP-10 production in THP-1 monocytes (multiplex Luminex). More on the design: key to Inhibition of LPS-stimulated IP-10 production: “X” signifies significant inhibition at a particular concentration. The settings on record: 18 hours, THP-1 monocytes. Here is the method:
(§1) Human THP-1 monocytes (ATCC TIB 202) were purchased from American Type Culture Collection (Manassas, Va.) and maintained in RPMI 1640 medium (Invitrogen, Carlsbad, Calif.) supplemented with 10% fetal bovine serum (“FBS”, Invitrogen, Carlsbad, Calif.), 100 U/mL of penicillin (Invitrogen, Carlsbad, Calif.), and 100 μg/mL of streptomycin (Invitrogen, Carlsbad, Calif.) at 37° C. in a humidified incubator with 5% CO2. THP-1 cells were pre-cultured in RPMI 1640 medium containing 10% dialyzed serum for 24 h. […] Each treatment was performed in triplicate.
(§2) Samples were analyzed using multiplex bead technology, which utilizes microspheres as the solid support for immunoassays and allows the analysis of all cytokines from each sample (D. A. Vignali, J. Immunol. Methods, Vol. 243, 243-255 (2000)). Sixteen cytokines were measured according to the manufacturer's instructions. Briefly, 50 μL of medium samples were incubated with antibody-coated capture beads overnight at 4° C. Washed beads were further incubated with biotin-labelled anti-human cytokine antibodies for 2 h at room temperature followed by incubation with streptavidin-phycoerythrin for 30 min. Samples were analyzed using Luminex 200™ (Luminex, Austin, Tex.) and Beadview software v1.0 (Upstate Cell Signaling Solutions, Temecula, Calif.). Standard curves of known concentrations of recombinant human cytokines were used to convert fluorescence units (median fluorescence intensity) to cytokine concentration in pg/mL. Only the linear portions of the standard curves were used to quantify cytokine concentrations, and in instances where the fluorescence reading exceeded the linear range of the standard curve, an appropriate dilution was performed to ensure that the concentration was in the linear portion of the curve.
(§3) All cytokine concentrations (pg/mL) were expressed as mean ±standard deviation. Statistical analysis comparing effects of treatment across groups was performed using a one-way ANOVA with a Dunnett's post-hoc comparison test using either vehicle control or LPS treatment as references. For all assays, p≦0.05 was predetermined as the criterion of statistical significance.

Test [2] deals with VEGF. Kind of test: LPS-stimulated VEGF production in THP-1 monocytes (multiplex Luminex). To be noted: 30 μg/mL compound + 10 μg/mL LPS, 18 hours, THP-1 monocytes. More on the design: key to Inhibition of LPS-stimulated VEGF production: “X” signifies significant inhibition at a particular concentration. The method, then: as §1, §2, §3
For test [3], the system named is IL-6. The test can be described thus: LPS-stimulated IL-6 production in THP-1 monocytes (multiplex Luminex). The settings on record: 18 hours, THP-1 monocytes. Also noted: key to Inhibition of LPS-stimulated IL-6 production: “X” signifies significant inhibition at a particular concentration. The method, then: as §1, §2, §3
The test system of test [4] is IL-12p40. The test can be described thus: LPS-stimulated IL-12p40 production in THP-1 monocytes (multiplex Luminex). More on the design: key to Inhibition of LPS-stimulated IL-12p40 production: “X” signifies significant inhibition at a particular concentration. The settings on record: 18 hours. Here is the method: as §1, §2, §3
The subject of test [5] is IL-8. Kind of test: LPS-stimulated IL-8 production in THP-1 monocytes (multiplex Luminex). Also noted: key to Inhibition of LPS-stimulated IL-8 production: “X” signifies significant inhibition at a particular concentration. To be noted: 18 hours, THP-1 monocytes. The method, then:
as §1, §2, §3

Test [6] has as its system MIP-1α. Kind of test: LPS-stimulated MIP-1α production in THP-1 monocytes (multiplex Luminex). To be noted: 18 hours, THP-1 monocytes. Also noted: key to Inhibition of LPS-stimulated MIP-1α production: “X” signifies significant inhibition at a particular concentration. Here is the method:
as §1, §2, §3

For test [7], the system named is IL-1ra. The test can be described thus: LPS-stimulated IL-1ra production in THP-1 monocytes (multiplex Luminex). More on the design: key to Inhibition of LPS-stimulated IL-1ra production: “X” signifies significant inhibition at a particular concentration. To be noted: 18 hours, THP-1 monocytes. Here is the method: as §1, §2, §3
Test [8] has as its system IL-1β. The test can be described thus: LPS-stimulated IL-1β production in THP-1 monocytes (multiplex Luminex). To be noted: 18 hours, THP-1 monocytes. More on the design: key to Inhibition of LPS-stimulated IL-1β production: “X” signifies significant inhibition at a particular concentration. The method, then:
as §1, §2, §3

Test [9] deals with IL-1α. The test can be described thus: LPS-stimulated IL-1α production in THP-1 monocytes (multiplex Luminex). Also noted: key to Inhibition of LPS-stimulated IL-1α production: “X” signifies significant inhibition at a particular concentration. The settings on record: 18 hours, THP-1 monocytes. Here is the method: as §1, §2, §3
The mark [10] stands for this setting: 30 μg/mL compound + 10 μg/mL LPS.
Where [11] appears, read: 10 μg/mL compound + 10 μg/mL LPS.

Consider `COc1c(N2C[C@@H]3CCCN[C@@H]3C2)c(F)cc2c(=O)c(C(=O)O)cn(C3CC3)c12` [Moxifloxacin, moxifloxacin, reference compound], for which the “Inhibition of LPS-stimulated IP-10 production” value in [1] (setting [10]) is given as “X”. Besides, the “Concentration at which a significant inhibitory effect was observed for IP-10” value in [1] (LPS-induced) is 30 µg/mL. Also, the “Inhibition of LPS-stimulated VEGF production” value in test [2] is listed as “X”. For the same compound, the “Inhibition of LPS-stimulated IL-6 production” value in [3] (setting [11]) is on record as “X”. Further, the “Concentration at which a significant inhibitory effect was observed for IL-6” value in test [3] (LPS-induced) turned out to be 10 µg/mL. Further, the “Inhibition of LPS-stimulated IL-12p40 production” value in [4] (1 μg/mL compound + 10 μg/mL LPS), in test [4] (setting [11]) and in test [4] (setting [10]) was “X” in each case. In addition, the “Concentration at which a significant inhibitory effect was observed for IL-12p40” value in test [4] (LPS-induced) was 1 µg/mL. Further, in test [5] (setting [10]), the “Inhibition of LPS-stimulated IL-8 production” value is “X”. Also, the “Concentration at which a significant inhibitory effect was observed for IL-8” value in [5] (LPS-induced) was found to be 30 µg/mL. In addition, the “Inhibition of LPS-stimulated MIP-1α production” value in test [6] (setting [10]) is recorded as “X”. Moreover, the “Concentration at which a significant inhibitory effect was observed for MIP-1α” value in test [6] (LPS-induced) turned out to be 30 µg/mL. Moreover, the “Inhibition of LPS-stimulated IL-1ra production” value in test [7] (setting [11]) and in [7] (setting [10]) was “X” throughout. Moreover, the “Concentration at which a significant inhibitory effect was observed for IL-1ra” value in test [7] (LPS-induced) stood at 10 µg/mL. In addition, the “Inhibition of LPS-stimulated IL-1β production” value in test [8] (setting [10]) is listed as “X”. Moreover, the “Concentration at which a significant inhibitory effect was observed for IL-1β” value in test [8] (LPS-induced) was determined as 30 µg/mL. In addition, in [9] (setting [10]), the “Inhibition of LPS-stimulated IL-1α production” value is listed as “X”. In addition, the “Concentration at which a significant inhibitory effect was observed for IL-1α” value in test [9] (LPS-induced) worked out at 30 µg/mL.

These data come from patent publication US20080306038A1, “Compositions and Methods for Modulating Inflammation Using Fluoroquinolones” (priority 2007, published 2008).
